Source: US6432968B1 (Aventis Pharma Deutschland GmbH, priority 1994, dated 2002)

Each compound was assayed on Human peripheral blood mononuclear cells (PBMC) (assay: Mixed human lymphocyte reaction (MLR) assay). Conditions: immunosuppressant alone, 0.5 nM, read-out: inhibition of lymphocyte proliferation.
Type: cell-based
Protocol: coculture of lymphocytes of different […] (MLR=mixed lymphocyte reaction): lymphocytes containing different antigens of the HLA-DR type (=allogens) activate each other non-specifically.
100 μl of those PBMC are mixed with 100 μl of irradiated PMBC (1×10^6 cells/ml) in a well of a microtiter plate. The test substances, alone or in combination, are likewise added to the PBMC. The plates are incubated for 5 days at 37° C. in a moist atmosphere which contains 5% CO2. Then 1 μCi of ^3H-thymidine is added to the cells and they are incubated under the abovementioned conditions for a further 8 hours. The cells are then collected on glass fiber filters and the incorporated radioactivity is determined using a beta counter.
Inhibition is given in percent and referred to uninhibited controls (which correspond to 0%).
Inhibition is given in percent and referred to uninhibited controls (which correspond to 0%)
With `C=CC[C@@H]1/C=C(\C)C[C@H](C)C[C@H](OC)[C@H]2O[C@@](O)(C(=O)C(=O)N3CCCC[C@H]3C(=O)O[C@H](/C(C)=C/[C@@H]3CC[C@@H](O)[C@H](OC)C3)[C@H](C)[C@@H](O)CC1=O)[C@H](C)C[C@@H]2OC` [FK 506, Tacrolimus, reference compound] the inhibition at 0.0005 µM was 30%.
In the case of `CO[C@H]1C[C@@H]2CC[C@@H](C)[C@@](O)(O2)C(=O)C(=O)N2CCCC[C@H]2C(=O)O[C@H]([C@H](C)C[C@@H]2CC[C@@H](O)[C@H](OC)C2)CC(=O)[C@H](C)/C=C(\C)[C@@H](O)[C@@H](OC)C(=O)[C@H](C)C[C@H](C)/C=C/C=C/C=C/1C` [RPM, rapamycin, reference compound], the inhibition at 0.0005 µM is reported as 35%.

Same assay, conditions: read-out: % inhibition of proliferation (100 μM), 100 μM, referred to uninhibited controls (0%)
`CCCn1cnc2c1c(=O)n(CCCCC(C)O)c(=O)n2C` (centres unmarked) [Compound 3, 1-(5-hydroxyhexyl)-3-methyl-7-propyl-xanthine] was tested, and the inhibition at 100 µM was 83%.
With `CCCCn1cnc2c1c(=O)n(CCCCC(C)(C)O)c(=O)n2C` [Compound 8, 1-(5-hydroxy-5-methylhexyl)-3-methyl-7-butylxanthine] the inhibition at 100 µM was 91%.
Work on `CCOCn1cnc2c1c(=O)n(CCCCC(C)(C)O)c(=O)n2C` [Compound 9, 7-ethoxymethyl-1-(5-hydroxy-5-methylhexyl)-3-methylxanthine] yielded an inhibition at 100 µM of 61%.
`CCCCn1cnc2c1c(=O)n(CCCCCC(C)(C)O)c(=O)n2CC` [Compound 11, 7-butyl-3-ethyl-1-(6-hydroxy-6-methylheptyl)-xanthine] gave an inhibition at 100 µM of 94%.
For `Cn1c(=O)n(CCCCC(C)(C)O)c(=O)c2c1ncn2CC1CC1` [Compound 12, 7-cyclopropylmethyl-1-(5-hydroxy-5-methylhexyl)-3-methylxanthine], the inhibition at 100 µM was 85%.
For `CCCCCCn1c(=O)c2c(ncn2C)n(C)c1=O` [Compound 14, 1-hexyl-3,7-dimethylxanthine], the inhibition at 100 µM was 85%.
